Assay results as given in patent publication US9157099B2, “Methods for preparing a hydrocarbon” (SHELL OIL COMPANY, priority 2012, dated 2015).
“Also recorded” adds a separate entry of the source.

T1: Fdc1/Pad1 (Saccharomyces cerevisiae, UniProt Q03034)
T1 construct: His (N); made in house; host or cells: E. coli Bl21(DE3), pCOLAduet-1
T1 sequence (Q03034 1-503): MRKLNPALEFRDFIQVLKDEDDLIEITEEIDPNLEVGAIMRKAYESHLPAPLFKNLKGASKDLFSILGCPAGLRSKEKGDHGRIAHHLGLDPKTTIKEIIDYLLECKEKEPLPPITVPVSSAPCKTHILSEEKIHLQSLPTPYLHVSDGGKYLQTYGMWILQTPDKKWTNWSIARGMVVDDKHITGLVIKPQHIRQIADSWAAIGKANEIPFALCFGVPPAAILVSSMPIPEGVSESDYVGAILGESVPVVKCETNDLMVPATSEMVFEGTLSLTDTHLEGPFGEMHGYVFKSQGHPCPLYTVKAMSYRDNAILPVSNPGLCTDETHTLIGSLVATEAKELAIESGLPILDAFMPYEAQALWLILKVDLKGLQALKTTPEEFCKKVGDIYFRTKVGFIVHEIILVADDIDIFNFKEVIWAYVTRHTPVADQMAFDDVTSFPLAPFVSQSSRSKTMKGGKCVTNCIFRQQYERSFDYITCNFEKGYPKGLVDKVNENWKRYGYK

T2: purified His-Fdc1/Pad1 (Saccharomyces cerevisiae, UniProt Q03034)
T2 sequence (Q03034 1-503): T1 sequence (Q03034 1-503)

T3: fdc1/pad1 in pCOLAduet in E. coli Bl21(DE3) (Saccharomyces cerevisiae, UniProt Q03034)
T3 construct: expressed in transfected cells; host or cells: E. coli Bl21(DE3) carrying fdc1 (MCS1) and pad1 (MCS2) in pCOLAduet-1
T3 sequence (Q03034 1-503): T1 sequence (Q03034 1-503)

B1: purified His-Fdc1/Pad1 (Saccharomyces cerevisiae S288C) (protein)
chain: T1 sequence (Q03034 1-503)

Experiments:
Fdc1/Pad1 = molecular target: T1, Fdc1/Pad1; test: Fdc1/Pad1 substrate range, in vivo and in vitro (summary); conditions: summary of substrate range
Source text: To assess what limit the enzyme imposes on the extent of unsaturation, the inventors tested a wide range of saturated and unsaturated substrates, both in vivo and in vitro.

purified His-Fdc1/Pad1 [1] = molecular target: T2, purified His-Fdc1/Pad1; test: UV-VIS spectroscopy of substrate consumption, Michaelis Menten parameters; conditions: for Kcat: substrate of purified His-Fdc1/Pad1, pH 6, 20° C.
Method: A direct observation of enzyme activity is possible by recording UV-VIS spectra of the solution. Aromatic substrates and aliphatic substrates with two or more double bonds conjugated to the acidic group absorb in the UV region. The activity of purified His-Fdc1/Pad1 was assayed against varying concentrations of these substrates in 400 μl 50 mM KCl, 50 mM NaPi pH 6 in a 1 mm pathlength cuvette at 20° C. Substrate consumption was monitored using a Cary 50 Bio spectrophotometer (varian) either in scanning mode, or at a specific wavelength for kinetic experiments. The rate of cinnamic acid consumption was monitored at 270 nm, ferulic acid at 312 nm, 2,4-pentadienoic acid at 242 nm, sorbic acid at 260 nm, 2,4,6-octatrienoic acid at 290 nm and 2,4-nonadienoic acid at 260 nm.

[2] = molecular target: T3, fdc1/pad1 in pCOLAduet in E. coli Bl21(DE3); test: head space GC-MS product analysis, in vivo (induced cultures); assay type: cell-based; conditions: E. coli cultures expressing Fdc1/Pad1, 25° C.
Method: For in vivo analysis, fdc1/pad1 in pCOLAduet and empty pCOLAduet in E. coli Bl21(DE3) were grown in LB supplemented with 40 μg/ml kanamycin at 37° C. to an OD600 of about 0.7 and induced with […] IPTG. 11.5 ml induced culture and a solution of 3.5 ml 20 mM substrate in distilled water with a pH of about 7.5 were placed in 20 ml head space vials with crimp top seals. Cultures were incubated in shaking incubator at 25° C. for about 12-48 hours.
(§1) Samples were analysed by GC-MS using a Thermofisher DSQ II. Vials were incubated for 3 minutes at 80° C. with agitation. 0.5 ml headspace was injected with a 105° C. syringe and a split ratio of 1/10. Analytes were separated on a 30 m 0.25 mm 0.25μ ZB5-MS (commercially obtainable from Zebron) column run (alternatively a 30 m×0.25 mm i.d.×0.1μ Varian VF-5HT column may be used) with a flow of 1.5 ml/min He. Oven temperature was held at 35° C. for 2 minutes before being ramped up to 250° C. at 10° C./min. Products were identified by searching for the corresponding mass peak.
As described above, for in vivo studies, Fdc1/Pad1 in pCOLAduet-1 and empty pCOLAduet-1 vector were transformed into E. coli Bl21(DE3). Cultures were grown in LB supplemented with 40 μg/ml kanamycin at 37° C. to OD600˜0.7 and induced with 1 mM IPTG. 11.5 ml of induced culture was added to 3.5 ml 20 mM substrate pH ˜7.5 per tube in a sealed headspace vial.
(§2) All Fdc1/Pad1 reactions were incubated in a shaking incubator at 25° C. for ˜36 hours.
as §1, with “(or” for “(commercially obtainable from Zebron) column run (alternatively a”, “VF-5HT)” for “VF-5HT”, “run” for “may be used)”, “raised” for “ramped up”

purified His-Fdc1/Pad1 [3] = molecular target: T2, purified His-Fdc1/Pad1; test: head space GC-MS product analysis, in vitro reactions; assay type: biochemical; design: His (N); made in house; host or cells: E. coli Bl21(DE3), pCOLAduet-1 co-expression plasmid, Ni-NTA purified; conditions: purified enzyme, 25° C.
Method: For in vitro analysis, purified His-Fdc1/Pad1 polypeptide was buffer exchanged into a solution of 150 mM NaCl and 50 mM NaPi in water with pH 7.5. Subsequently solutions of 11.5 ml 150 mM NaCl and 50 mM NaPi with pH 7.5, of 3.5 ml 20 mM substrate with pH 7.5 and of 150 μl 30 mg/ml enzyme in water or buffer were added to 20 ml head space vials with crimp top seals. Reactions were incubated with shaking at 25° C. for about 12-48 hours.
as §1
For in vitro reactions, Fdc1/Pad1 partially purified by Ni^2+ affinity and buffer exchanged into 150 mM NaCl, 50 mM NaPi pH 7.5. 11.5 ml […] pH 7.5, 3.5 ml 20 mM substrate pH 7.5 and 150 μl 30 mg/ml enzyme or enzyme free buffer were added to a sealed headspace vial.
as §2
as §1, with “(or” for “(commercially obtainable from Zebron) column run (alternatively a”, “VF-5HT)” for “VF-5HT”, “run” for “may be used)”, “raised” for “ramped up”

[4] = molecular target: E. coli Bl21(DE3) cells containing the fdc1/pad1 co-expression plasmid (Saccharomyces cerevisiae, UniProt Q03034); conditions: 6 mM sorbic acid, pH 6.2, overnight at 37° C.
Method: In vivo enzyme activity assays were carried out using exogenous supplied substrates in the media (i.e. sorbic acid).
For in vivo pH assays, LB agar plates were supplemented with […] kanamycin, 6 mM sorbic acid and 0.004% w/v phenol red in distilled water and buffered to pH 6.2. E. coli Bl21(DE3) cells containing either the co-expression plasmid or empty pCOLAduet-1 were inoculated onto the plate and grown overnight at 37° C. […] This allows rapid visual indication of enzyme activity levels.

[5] = substrate: CCCCC=CC=CC(=O)O; test: purified protein, by the assay type; conditions: other: substrate of purified His-Fdc1/Pad1, pH 6, 20° C.
[6] = substrate: CC=CC=CC=CC(=O)O; test: purified protein, by the assay type; conditions: other: substrate of purified His-Fdc1/Pad1, pH 6, 20° C.
[7] = substrate: C/C=C/C=C/C(=O)O; test: purified protein, by the assay type; conditions: other: substrate of purified His-Fdc1/Pad1, pH 6, 20° C.
[8] = substrate: C=CC=CC(=O)O; test: purified protein, by the assay type; conditions: other: substrate of purified His-Fdc1/Pad1, pH 6, 20° C.
[9] = substrate: COc1cc(/C=C/C(=O)O)ccc1O; test: purified protein, by the assay type; conditions: other: substrate of purified His-Fdc1/Pad1, pH 6, 20° C.
[10] = substrate: O=C(O)C=Cc1ccccc1; test: purified protein, by the assay type; conditions: other: substrate of purified His-Fdc1/Pad1, pH 6, 20° C.

Molecule | in vitro and in vivo activity (decarboxylation) (Fdc1/Pad1) | decarboxylation product formation by GC-MS, in vivo [2] | decarboxylation product formation by GC-MS, in vitro (purified His-Fdc1/Pad1 [3]) | Kcat (purified His-Fdc1/Pad1 [1]) [s⁻¹] | also measured
CC=CC=CC=CC(=O)O [2,4,6-Octatrienoic acid] | high |  |  |  | enzyme dependent spectral changes / conversion by UV-VIS (purified His-Fdc1/Pad1 [1]): enzyme catalysed conversion
CCCCC=CC=CC(=O)O [2,4-Nonadienoic acid] | high |  |  |  | 
C=CC=CC(=O)O [2,4-Pentadienoic acid] | high |  |  |  | 
CCCCC=CC(=O)O [2-Heptenoic acid] |  | only been detected in vivo; also recorded: In vivo activity has also been detected |  |  | 
CCCC=CC(=O)O [2-Hexenoic acid] | Lower level activity | also been detected in vivo | 1-pentene product has been detected and enzyme-catalysed production of 1-pentene |  | 
CCCCCC=CC(=O)O [2-Octenoic acid] |  | only been detected in vivo |  |  | decarboxylation product formation by GC-MS, in vivo ([2]; listed as 2-octenoic acids): In vivo activity has also been detected
O=C(O)C=Cc1ccccc1 [Cinnamic acid] | high | verified the presence of the anticipated decarboxylation products; also recorded: confirming styrene production | confirmed product formation; also recorded: confirming styrene production | 34.394 | 
COc1cc(/C=C/C(=O)O)ccc1O [Ferulic acid] | high | verified the presence of the anticipated decarboxylation products | confirmed product formation | 30.774 | 
C/C=C/C=C/C(=O)O [Sorbic acid] | high | verified the presence of the anticipated decarboxylation products | confirmed product formation | 2.793 | substrate dependent alkalinification in vivo [4]: yellow to red colour change observed
B1 |  |  |  |  | Km [5]: 221 µM; kcat [5]: 0.588 s⁻¹; Km [6]: 213 µM; kcat [6]: 99 s⁻¹; Km [7]: 81 µM; Km [8]: 109 µM; kcat [8]: 0.336 s⁻¹; Km [9]: 203 µM; Km [10]: 21 µM
